In brackets after ≈: the same amount, converted by molar mass. Where two headings read alike, the source gives them in different places.
Columns and labels:
Format in all cases: physicochemical
[1] = VTI moisture adsorption/desorption (hygroscopicity); settings: for Hygroscopicity assessment in words: VTI, up to 90% RH; for Hygroscopic moisture gain / weight gain at 90% RH (VTI): flow-through VTI, 25 C; for Hygroscopic moisture gain / weight gain at 90% RH (VTI) / Hygroscopicity (by weight) at 90% relative humidity at ambient temperature: 90% RH
Excerpt: The salts and solvates of the present invention can be further characterized by VTI water vapor adsorption to measure hygroscopicity. […] Other methods of analysis are described in more detail in the Examples.
This monobesylate salt of Formula I appeared as fine crystalline particles of moderate to high birefringence with irregularly-shaped morphology. The size of the particles ranged from approximately […] to 50 mm in diameter, with some aggregates up to about 200 mm in diameter. The material was tested using DSC at a heating rate of five degrees/minute, FIG. 1(b). A sharp melting endotherm with onset temperature of 254° C. was observed. Minor front tailing for the endotherm was also noted. The material was tested by TGA at a heating rate of five degrees/minute, FIG. 1(c). No loss in weight was observed up to the melting onset temperature (˜250)° C. […] These solvents were thus likely entrained by the crystal and were not released until melting. […] The dynamic moisture sorption was evaluated using a flow-through VTI apparatus at 25° C. The sample was initially dried at ˜2% RH for maximum of two hours, followed by a moisture adsorption ramp from 10% RH to 90%, then a desorption ramp back down to 10% RH. Initial drying removed 0.08% by weight, followed by a maximum moisture gain of 0.09% at 90% RH. Thus, this complex was non-hygroscopic.
The sample was tested in flow-through VTI with relative humidity ramp from 0 to 90%, then a desorption ramp back down to 10%1 RH at 25 C. […] The monomesylate was analyzed for elemental composition of carbon, hydrogen, nitrogen, fluorine and sulfur. The results from analysis met the stoichiometry of a mono-mesylate salt containing 1% THF.
The hemihydrate tosylate salt of Formula I consisted of fine birefringent aggregated needles and lathes. This sample was crystalline by PXRD. The thermal profile of this sample was obtained by heating from 30-300 C at 5 C/min. […] The volatile content of this sample was obtained by heating from 30-225 C at 5 C/min. The total volatile content was 1.4%, and consisted of water and ethanol by IR. The sample was tested in flow-through VTI with relative humidity ramp from 0 to 90% at 25 C.

[2] = pKa in solution; settings: weak base
Excerpt: (§1) Solubility increased in acidic media, with a solubility of 1 mgA/ml observed in pH 2 buffer. […] Solubility determined in several common organic solvents, such as ethanol and acetone, was about 200 mgA/ml. The following table summarizes the physical and chemical properties of the monobesylate salt of Formula I: […]

[3] = Solubility in aqueous media and organic solvents
Excerpt: as §1

[4] = Solid-state stability at 70 C/75% RH
Description: The monobesylate salt of Formula I (m. wt. 665.67), Form A, was a white crystalline solid with irregularly-shaped particle morphology ranging from approximately […] in diameter. This anhydrous form melted (DSC, Tonset) at 254° C. with decomposition.

[5] = listed as monobesylate salt of Formula I

CN(c1ncccc1CNc1nc(Nc2ccc3c(c2)CC(=O)N3)ncc1C(F)(F)F)S(C)(=O)=O [Example 1, N-Methyl-N-(3-{[2-(2-oxo-2,3-dihydro-1H-indol-5-ylamino)-5-trifluoromethyl-pyrimidin-4-ylamino]-methyl}-pyridin-2-yl)-methanesulfonamide]
Hygroscopicity assessment in words [1, 5]: non-hygroscopic
Hygroscopic moisture gain / weight gain at 90% RH (VTI) [1, 5]: 0.09%
pKa [2]: 4.58
Acetone solubility ([3]; acetone): 206 ugA/ml
Aqueous buffer pH 1.4 solubility ([3]; aqueous buffer pH 1.4): 1162 ugA/ml
Aqueous buffer pH 7 solubility ([3]; aqueous buffer pH 7): 4 ugA/ml
solubility ([3]; aqueous buffer, heading: Solubility in unbuffered water, unbuffered water, pH 2.65): 369 µg/mL (≈ 727 µM)
solubility ([3]; aqueous buffer, pH 2 buffer, read-out: Solubility in pH 2 buffer): 1000 µg/mL (≈ 1970 µM)
solubility ([3]; aqueous media, water, aqueous, above pH 5, read-out: Aqueous solubility above pH 5): ~5000 µg/mL (≈ 9850 µM)
Ethanol solubility ([3]; ethanol): 260 ugA/ml
Solubility in common organic solvents, such as ethanol and acetone ([3]; organic solvents): about 200 mgA/ml
Unbuffered water solubility (pH 2.65) ([3]; unbuffered water, pH 2.65 (table)): 369 ugA/ml
Solid-state stability, 3 weeks at 70 C./75% RH (purity by HPLC area % relative to room temperature control) ([4]; 3 weeks, 70 C/75% RH): >99.9% (purity by HPLC
Solid-state stability in words ([4]; three weeks exposure to 70 C/75% RH): chemically and physically stable in the solid-state

CN(c1ncccc1CNc1nc(Nc2ccc3c(c2)CC(=O)N3)ncc1C(F)(F)F)S(C)(=O)=O [Example 2, N-Methyl-N-(3-{[2-(2-oxo-2,3-dihydro-1H-indol-5-ylamino)-5-trifluoromethyl-pyrimidin-4-ylamino]-methyl}-pyridin-2-yl)-methanesulfonamide]
Hygroscopicity (by weight) at 90% relative humidity at ambient temperature [1]: 0.16%
Hygroscopic moisture gain / weight gain at 90% RH (VTI) ([1]; listed as besylate salt of Formula I): 0.16%

CN(c1ncccc1CNc1nc(Nc2ccc3c(c2)CC(=O)N3)ncc1C(F)(F)F)S(C)(=O)=O [Example 3, N-Methyl-N-(3-{[2-(2-oxo-2,3-dihydro-1H-indol-5-ylamino)-5-trifluoromethyl-pyrimidin-4-ylamino]-methyl}-pyridin-2-yl)-methanesulfonamide]
Hygroscopicity (by weight) at 90% relative humidity at ambient temperature [1]: 1.4%
Hygroscopicity assessment in words ([1]; listed as monomesylate): kinetically non-hygroscopic
Hygroscopic moisture gain / weight gain at 90% RH (VTI) ([1]; listed as monomesylate): 1.4%

CN(c1ncccc1CNc1nc(Nc2ccc3c(c2)CC(=O)N3)ncc1C(F)(F)F)S(C)(=O)=O [Example 4, N-Methyl-N-(3-{[2-(2-oxo-2,3-dihydro-1H-indol-5-ylamino)-5-trifluoromethyl-pyrimidin-4-ylamino]-methyl}-pyridin-2-yl)-methanesulfonamide]
Hygroscopicity (by weight) at 90% relative humidity at ambient temperature [1]: 0.6%
Hygroscopic moisture gain / weight gain at 90% RH (VTI) ([1]; listed as tosylate salt of Formula I): 0.6%

CN(c1ncccc1CNc1nc(Nc2ccc3c(c2)CC(=O)N3)ncc1C(F)(F)F)S(C)(=O)=O [Example 5, N-Methyl-N-(3-{[2-(2-oxo-2,3-dihydro-1H-indol-5-ylamino)-5-trifluoromethyl-pyrimidin-4-ylamino]-methyl}-pyridin-2-yl)-methanesulfonamide]
Hygroscopicity (by weight) at 90% relative humidity at ambient temperature [1]: 2.7%

CN(c1ncccc1CNc1nc(Nc2ccc3c(c2)CC(=O)N3)ncc1C(F)(F)F)S(C)(=O)=O [Example 6, N-Methyl-N-(3-{[2-(2-oxo-2,3-dihydro-1H-indol-5-ylamino)-5-trifluoromethyl-pyrimidin-4-ylamino]-methyl}-pyridin-2-yl)-methanesulfonamide]
Hygroscopicity (by weight) at 90% relative humidity at ambient temperature [1]: 1.4%
